What all share (format): functional
The subject of test [1] is Mus musculus. The experiment in a line: Analgesic activity in sc dosed mouse assessed as phenylquinone-induced writhing measured for 10 mins. A general note: Writhing tests count abdominal constrictions after an irritant is injected.
Test [2] has as its system Mus musculus. The experiment in a line: Narcotic antagonist activity in sc dosed mouse assessed as reversal of oxymorphone-induced straub tail response administered 10 mins before oxymorphone challenge.
Test [3] has as its system Rattus norvegicus. Put plainly: Analgesic activity in sc dosed rat assessed as phenylquinone-induced writhing measured for 10 mins.
In test [4] the test system is Mus musculus. Put plainly: Narcotic antagonist activity in sc dosed mouse assessed as reversal of oxymorphone-induced narcosis.
For test [5], the species on record is Rattus norvegicus. The experiment in a line: Antagonist activity in rat assessed as morphine-induced analgesia by […] tail flick test.
[6] abbreviates: Mus musculus, sc, 10 min, read-out: ED50.
Where [7] appears, read: Mus musculus, sc, read-out: ED50.

One may read the ED50 as the midpoint of the dose-response relation. With `C=CCC12CCN(C)C(Cc3ccc(O)cc31)[C@@H]2O` (stereo partly specified), the ED50 in the test with Mus musculus [1] (setting [6]) and with Mus musculus [2] (setting [7]) was over 40 mg/kg in each case.
Regarding `CC1CC23CCN(C)C(Cc4ccc(O)cc42)C3(C)O1` (stereo unspecified), the median effective dose (ED50) was 0.4 mg/kg with Mus musculus [1] (setting [6]) and over 40 mg/kg in the test with Mus musculus [2] (setting [7]).
Taken in the same sequence, the figures for `CC1CC23CCN(CC4CC4)C(Cc4ccc(O)cc42)C3(C)O1` (stereo unspecified) were over 40 mg/kg and 5 mg/kg.
Taken in the same sequence, the figures for `CN1CC[C@]23CCCO[C@@H]2[C@H]1Cc1ccc(O)cc13` were 30 mg/kg and over 40 mg/kg.
Consider `Oc1ccc2c(c1)[C@@]13CCCO[C@@H]1[C@@H](C2)N(CC1CC1)CC3`, for which the 50% effective dose (ED50) amounted to 8.4 mg/kg with Mus musculus [1] (setting [6]) and 20 mg/kg in the test on Mus musculus [2] (setting [7]).
Taken in the same sequence, the figures for `C=CCC12CCN(CC3CC3)C(Cc3ccc(O)cc31)[C@@H]2O` (stereo partly specified) were 0.23 mg/kg and 1.9 mg/kg.
The like results for `C=CCC12CCN(CC3CCC3)C(Cc3ccc(O)cc31)[C@@H]2O` (stereo partly specified) were, in that order, 11 mg/kg and 4.5 mg/kg.
The like results for `C=CCC12CCN(CC3CC3)C(Cc3ccc(O)cc31)[C@]2(C)O` (stereo partly specified) were, in that order, over 40 mg/kg and 0.8 mg/kg.
For the molecule `C=CCC12CCN(CC3CCC3)C(Cc3ccc(O)cc31)[C@]2(C)O` (stereo partly specified), the ED50 in the test with Mus musculus [1] (setting [6]) came to 1.3 mg/kg; in the test on Mus musculus [2] (setting [7]) it was 10 mg/kg.
The like results for `CC1CC23CCN(C)C(Cc4ccc(O)cc42)C3O1` (stereo unspecified) were, in that order, 1.8 mg/kg and over 40 mg/kg.
Taken in the same sequence, the figures for `CN1CC[C@]23CCCO[C@]2(C)[C@H]1Cc1ccc(O)cc13` were over 40 mg/kg and over 40 mg/kg.
Taken in the same sequence, the figures for `C[C@]12OCCC[C@@]13CCN(CC1CC1)[C@@H]2Cc1ccc(O)cc13` were 35 mg/kg and 6 mg/kg.
In the case of `C[C@]12OCCC[C@@]13CCN(CC1CCC1)[C@@H]2Cc1ccc(O)cc13`, the ED50 in the test on Mus musculus [1] (setting [6]) worked out at 16 mg/kg; in the test on Mus musculus [2] (setting [7]) it was 5 mg/kg.
The like results for `CN1CC[C@]23CCCO[C@H]2[C@H]1Cc1ccc(O)cc13` were, in that order, 0.6 mg/kg and over 40 mg/kg.
Taken in the same sequence, the figures for `CN1CC[C@]23CCCO[C@@]2(C)[C@H]1Cc1ccc(O)cc13` were 0.03 mg/kg and over 40 mg/kg.
Taken in the same sequence, the figures for `Oc1ccc2c(c1)[C@@]13CCCO[C@H]1[C@@H](C2)N(CC1CCC1)CC3` were 0.15 mg/kg and 10 mg/kg.
For the molecule `C[C@@]12OCCC[C@@]13CCN(CC1CCC1)[C@@H]2Cc1ccc(O)cc13`, the median effective dose (ED50) is 0.068 mg/kg with Mus musculus [1] (setting [6]) and 23 mg/kg in the test with Mus musculus [2] (setting [7]).
The like results for `C=CCN1CC[C@]23CCCO[C@@]2(C)[C@H]1Cc1ccc(O)cc13` were, in that order, 28 mg/kg and 1 mg/kg.
Taken in the same sequence, the figures for `CC(C)=CCN1CC[C@]23CCCO[C@@]2(C)[C@H]1Cc1ccc(O)cc13` were 0.18 mg/kg and over 40 mg/kg.
On to `Oc1ccc2c(c1)[C@@]13CCCO[C@H]1[C@@H](C2)N(CC1CC1)CC3` (stereo in doubt; 6c), for which the median effective dose (ED50) was 0.03 mg/kg with Mus musculus [1] and 0.3 mg/kg in the test with Mus musculus [2].
The like results for `C[C@@]12OCCC[C@@]13CCN(CC1CC1)[C@@H]2Cc1ccc(O)cc13` (stereo in doubt; 6d) were, in that order, 0.19 mg/kg and 0.61 mg/kg.
The like results for `Oc1ccc2c(c1)[C@@]13CCCO[C@H]1[C@@H](C2)N(CC1CC1)CC3` (stereo in doubt; (+)-6c) were, in that order, over 40 mg/kg and over 40 mg/kg.
Taken in the same sequence, the figures for `C[C@@]12OCCC[C@@]13CCN(CC1CC1)[C@@H]2Cc1ccc(O)cc13` (stereo in doubt; (+)-6d) were over 40 mg/kg and over 40 mg/kg.
As to `Oc1ccc2c(c1)[C@@]13CCCO[C@H]1[C@@H](C2)N(CC1CC1)CC3` (stereo in doubt; (-)-6c), the ED50 in the test with Mus musculus [1] amounted to 0.013 mg/kg; in the test on Mus musculus [2], 0.26 mg/kg; with Rattus norvegicus [3], 0.09 mg/kg; in the test on Mus musculus [4] it was 0.04 mg/kg; in the test listed under Rattus norvegicus [5], 0.097 mg/kg.
Regarding `C[C@@]12OCCC[C@@]13CCN(CC1CC1)[C@@H]2Cc1ccc(O)cc13` (stereo in doubt; (-)-6d), the 50% effective dose (ED50) with Mus musculus [1] was 0.105 mg/kg; in the test with Mus musculus [2] it was 0.2 mg/kg; in the test with Rattus norvegicus [3], 0.2 mg/kg; in the test with Mus musculus [4], 0.014 mg/kg; in the test listed under Rattus norvegicus [5], 0.021 mg/kg.
Turning to `Oc1ccc2c(c1)[C@@]13CCCC[C@@]1(O)[C@@H](C2)N(CC1CCC1)CC3` [BUTORPHANOL], the ED50 in the test on Mus musculus [1] (setting [6]) was 0.051 mg/kg; in the test with Mus musculus [2] (setting [7]), 0.98 mg/kg; in the test on Rattus norvegicus [3], 0.04 mg/kg; with Mus musculus [4], 0.27 mg/kg; in the test filed under Rattus norvegicus [5] it was 0.43 mg/kg.
The like results for `Oc1ccc2c(c1)[C@@]13CCCC[C@H]1[C@@H](C2)N(CC1CC1)CC3` [CYCLORPHAN] were, in that order, 0.013 mg/kg, 0.32 mg/kg, 0.028 mg/kg, 0.1 mg/kg and 0.032 mg/kg.
For `Oc1ccc2c(c1)[C@@]13CCCC[C@@]1(O)[C@@H](C2)N(CC1CC1)CC3` [OXILORPHAN], the ED50 came out at 12.8 mg/kg with Mus musculus [1] (setting [6]); 0.19 mg/kg with Mus musculus [2] (setting [7]); 8 mg/kg with Rattus norvegicus [3]; 0.03 mg/kg in the test with Mus musculus [4]; 0.012 mg/kg in the test listed under Rattus norvegicus [5].

The record behind these values is ChEMBL document CHEMBL3272142, “Analgesics and narcotic antagonists in the benzomorphan and 8-oxamorphinan series. 5” (1978).
